Laboratory results: patent publication US20070292901A1, “Methods and kits for evaluating and measuring the oncological status of tissue samples in three-dimensional physiological matrices” (priority 2006, published 2007)

System: Patient Sample GS-640, kidney tissue, renal cell carcinoma
Assay: Three-dimensional gel matrix screening of chemotherapeutics on patient tumor tissue fragments (cell migration/invasion into the gel)
Assay type: cell-based, human
Conditions: renal cell carcinoma patient sample GS-640 in gel matrix; for distance of cell migration away from the solid tumor fragment / number of cells that have grown and invaded away from the solid tumor fragment: 5 days after treatment, photomicrograph; for number of cells that have grown and invaded away from the solid tumor fragment: versus control; for response of tumor sample to the drug: treated for 5 days, 37 degree Celsius, 5% CO2, compared with untreated control (FIG. 5)
Source text: FIGS. 1-8 are photographic and photomicrographic images which show, by way of example, use of the means and methods of the present invention with respect to a tissue sample removed from a patient. With respect to FIGS. 1-8, Patient Sample GS-640, comprising kidney tissue, was removed from the patient by a surgeon during surgery.
Tissue analysis and screening in accordance with the invention were requested by the surgeon, and proper consent was obtained from the patient prior to surgical removal of a sample quantity of tissue from the RHS Kidney. The patient was diagnosed with renal cell carcinoma. A tissue sample of approximately 1 gram in quantity was removed from the patient during surgery, and was placed into a 25 ml sample jar, and immersed in sterile saline. The tumor tissue was kept at 4 degrees centigrade until processed for the screening of therapeutic compounds in accordance with the means and methods of the invention. All procedures were performed under sterile conditions in a bio-safety laminar flow hood.
FIG. 1: FIG. 1 is a photographic image showing the mechanical division of the sample into portions to be tested. The sample has been prepared by dissecting away any non viable tissue and blood prior to mincing into 1-2 mm pieces using sterile disposable scalpels.
FIG. 2: FIG. 2 is a photographic image showing tumor sample portions which have been placed into each well of a 48 well plate, and been submersed in a gel matrix mixture according to the invention. After insertion of the portions, the mixture was allowed to form into a gel at room temperature for approximately 30 minutes. Once the gel formed around the fully immersed tumor fragments, nutrient rich media was added as a liquid overlay that permeated the entire gel and tumor fragment.
Each different chemotherapy and or dose of chemotherapy was added to a set of 6 wells out of the 48-well plate. A total of 7 different chemotherapies were assessed in this plate. One set of six wells were not treated with drug and thus acted as ‘control conditions’ for tumor fragment growth and invasion. Each of the eight vertical lanes containing six separate wells was marked with a symbol for each chemotherapy/dose used and noted correspondingly on data collection sheets. […] The plates were then placed in a conventional 37 degree Celsius incubator at 5% CO2.
This image is thus representative of all wells at Day 0 with or without chemotherapeutics. Images were made with a 400× magnification phase contrast micrograph using ZEISS camera specs.
Noteworthy is the halo of cells and increased cell density as compared with the results shown at Day 3 of the test. The lines on the images have been drawn to show the distance measurements within which approximately 95% of the migrating cells have migrated away from the margins of the tissue sample.

Compound	distance of cell migration away from the solid tumor fragment	number of cells that have grown and invaded away from the solid tumor fragment	response of tumor sample to the drug
CC(=O)O[C@@]12CO[C@@H]1C[C@H](O)[C@@]1(C)C(=O)[C@H](O)C3=C(C)[C@@H](OC(=O)[C@H](O)[C@@H](NC(=O)OC(C)(C)C)c4ccccc4)C[C@@](O)([C@@H](OC(=O)c4ccccc4)[C@H]21)C3(C)C [Docetaxol, Docetaxel]	longer migratory distance than treatment with Taxol	fewer number of invading cells than the control	moderate response
CC(=O)O[C@H]1C(=O)[C@@]2(C)[C@H]([C@H](OC(=O)c3ccccc3)[C@]3(O)C[C@H](OC(=O)[C@H](O)[C@@H](NC(=O)c4ccccc4)c4ccccc4)C(C)=C1C3(C)C)[C@]1(OC(C)=O)CO[C@@H]1C[C@@H]2O [Taxol, Paclitaxel]	drop	drop	–
N.N.[Cl][Pt][Cl] [Cisplatin]	–	identical in appearance and cell numbers to the control sample	failed chemotherapy
